Measured values taken from ChEMBL document CHEMBL1157539, “Thousands of chemical starting points for antimalarial lead identification” (Nature, 2010).

system: Plasmodium falciparum; assay: GSK_TCMDC: Inhibition of Plasmodium falciparum 3D7 in whole erythrocytes, using parasite LDH activity as an index of growth.; assay type: functional, organism-based; details: Plasmodium falciparum, 3D7

`Cc1cccc(Cl)c1S(=O)(=O)Nc1cccc(CCN2CCC(N3CCCCC3)CC2)c1` and `O=S(=O)(Nc1cccc(CCN2CCC(N3CCCCC3)CC2)c1)c1cccc2cccnc12` are within 1.5-fold of each other in XC50: 1110 nM for the first, 851 nM for the second.

Compared with `CCN(CC)/C(=N/C(=N)NCc1ccc(Cl)cc1Cl)NCCCCCCN/C(=N\C(=N)NCc1ccc(Cl)cc1Cl)N(CC)CC`, `O=C(/C=C/c1ccc(Cl)c(Cl)c1)NCCCCCCN1CCN(C(=O)Nc2ccc(Cl)c(Cl)c2)CC1` is 4.3-fold higher in XC50: 218 nM for the first, 931 nM for the second.

Compared with `COc1ccc(CNCc2cccc(-c3csc(-c4nc5ccccc5[nH]4)c3)c2)cc1`, `COc1ccc(CNCc2cccc(-c3cccc(-c4nc5cc(F)ccc5[nH]4)c3)c2)cc1` is 2.1-fold lower in XC50: 645 nM for the first, 300 nM for the second.

Going from `CC(C)COc1ccc(Cl)cc1Cc1ccc(-c2nc3ccc(F)c(F)c3[nH]2)o1` to `COc1ccc2nc(C)cc(Nc3ccc(Oc4ccc(Cl)cc4)c(Cl)c3)c2c1`, the XC50 falls from 942 nM to 191 nM (4.9-fold).

`O=C(NCc1cccc(F)c1)Nc1ccc(-c2ccc(-c3nc4cc(C(F)(F)F)ccc4[nH]3)cc2)cc1` and `O=C(NCc1ccccc1)Nc1ccc(-c2ccc(-c3nc4cc(C(F)(F)F)ccc4[nH]3)cc2)cc1` are within 1.5-fold of each other in XC50: 769 nM for the first, 671 nM for the second.

`CN(Cc1ccc(-c2ccc(C(F)(F)F)cc2)cc1)C(=O)Cn1c(CCc2cccc(F)c2F)nc(=O)c2ccc(N3CCN(CCN4CCCCC4)CC3)nc21` and `CCOc1ccc(C2CCN(CCN3CCC(NC(=O)c4ccc(-c5ccc(C(F)(F)F)cc5)cc4)CC3)CC2)c(OCC2CC2)c1` are within 1.5-fold of each other in XC50: 764 nM for the first, 826 nM for the second.

`Cc1ccc2nc(C)cc(N/N=C/c3ccc([N+](=O)[O-])o3)c2c1` and `O=[N+]([O-])c1cccc(/C=N/Nc2ccnc3cc(F)ccc23)c1` are within 1.5-fold of each other in XC50: 751 nM for the first, 910 nM for the second.

Going from `Cn1c(=O)c2cc(C(=O)NCCCN3CCCCCC3)sc2c2ccccc21` to `O=C(NCCCN1CCCC1=O)c1cnc(N2CCC(Oc3ccccc3)CC2)c(Cl)c1`, the XC50 falls from 689 nM to 305 nM (2.3-fold).

`COc1ccc(Cn2c(Nc3cccc(C(F)(F)F)c3)nc3cc(C(=O)NCCN4CCCC4)ccc32)cc1Cl` and `COc1c(C2CCN(CCCCNC(=O)c3ccc(-c4ccc(C#N)cc4)cc3)CC2)cc(Cl)c2c1CCCC2` are within 1.5-fold of each other in XC50: 830 nM for the first, 776 nM for the second.

`O=C(CSc1ccccn1)Nc1c(F)cccc1F` and `CCC(C)NC(=O)Cn1c2ncccc2c(=O)n1-c1ccc(C)cc1` (stereo not given) are within 1.5-fold of each other in XC50: 1210 nM for the first, 1260 nM for the second.

`Cc1ccc2cc(NCCCCCCCCON3C(N)=NC(N)=NC34CCCCC4)ccc2n1` and `CCCc1cc(Cc2cnc(N)nc2N)cc(OCCCCCC(=O)O)c1OC` are within 1.5-fold of each other in XC50: 163 nM for the first, 164 nM for the second.

Going from `NC(=O)c1ccc(NCC(=O)Nc2cccc(-c3cccc(-c4nc5ccccc5[nH]4)c3)c2)cc1` to `CC(=O)Nc1ccc(C(=O)Nc2ccc(-c3csc(-c4nc5ccccc5[nH]4)c3)cc2)cn1`, the XC50 falls from 987 nM to 591 nM (1.7-fold).

`CCOC(=O)C1CCN(CCOc2cc(NC(=O)/C=C/c3ccccc3Cl)ccc2Br)CC1` and `Cc1cc(Cl)ccc1NC(=O)NCCCCCN1CCC(c2c[nH]c3ccccc23)CC1` are within 1.5-fold of each other in XC50: 991 nM for the first, 1010 nM for the second.

Going from `CC1(C)N=C(NC(=O)c2ccc([N+](=O)[O-])cc2)N=C(N)N1OCc1ccc2ccccc2c1` to `O=C(Nc1ccccc1O)c1ccc(Oc2cccc(C(=O)Nc3ccccc3O)c2)cc1`, the XC50 rises from 7.57 nM to 799 nM (110-fold).

`Cc1cccc2nc(-c3ccc(-c4ccc(CNCCCN5CCCC5=O)cc4)cc3)[nH]c12` and `NCc1ccc(CNCc2cccc(-c3ccc(-c4nc5ccccc5[nH]4)cc3)c2)cc1` are within 1.5-fold of each other in XC50: 632 nM for the first, 717 nM for the second.

First: O=C(NC(c1ccccc1)c1ccc2cccnc2c1O)c1ccccc1 (stereo not given)
Second: CCc1c(C)nc(-n2nc(C)cc2NC(=O)CC(c2ccccc2)c2ccccc2)[nH]c1=O
The XC50 of the first is 1.5-fold lower: 428 nM for the first, 652 nM for the second.

`N#Cc1cccc(NC(=O)Nc2ccc3c(c2)CCN(C2CCC2)CC3)c1` and `Cc1ccc(/C=C/C(=O)NC2CCC(N3CCC(c4ccccc4C)CC3)CC2)cc1C` (stereo not given) are within 1.5-fold of each other in XC50: 843 nM for the first, 809 nM for the second.

`CC(C)(CN)c1nc(-c2ccc(Br)c(O)c2)c(-c2ccncc2)[nH]1` and `Cc1cc(NCC(C)C)c2[nH]nc(-c3ccccc3)c2n1` are within 1.5-fold of each other in XC50: 965 nM for the first, 744 nM for the second.

Compared with `Cc1cc(N)c2cc(NC(=O)c3cccc(C(=O)Nc4ccc5nc(C)cc(N)c5c4)c3)ccc2n1`, `COC(=O)Nc1ccc(-c2ccc(C(=O)NC3CCN(C[C@H](O)c4ccnc5ccc(OC)cc45)CC3)cc2)c(C)c1` is 2.7-fold higher in XC50: 256 nM for the first, 685 nM for the second.

`O=C(Nc1ccc(Cl)c(Cl)c1)C1CCC(=O)N1[C@@H](Cc1ccccc1)C(=O)NCCc1ccc(Cl)cc1` (stereo not given in full) and `O=C(NCCCCNCC(Cc1cccc(O)c1)c1ccccc1)c1ccc(NC(=O)c2ccc(Cl)cc2)cc1` (stereo not given) are within 1.5-fold of each other in XC50: 1100 nM for the first, 1040 nM for the second.

First: CCc1cn2c3c(cc(C(=O)N[C@@H](Cc4ccccc4)[C@H](O)CNC4CCOCC4)cc13)N(C(C)C)S(=O)(=O)CC2
Second: CCNc1cc(C(=O)N[C@@H](Cc2ccccc2)[C@H](O)CNC(C)(C)Cc2ccccc2)cc(N2CCCC2=O)c1
The XC50 of the first is 3.1-fold lower: 83.6 nM for the first, 262 nM for the second.

`O=C(NC1CC1)c1cnc(N2CCC(c3ccccc3)CC2)c(Cl)c1` and `CN1CCC(COc2ccc(CN3CCC(NC(=O)c4cccc(Cl)c4)CC3)cc2)CC1` are within 1.5-fold of each other in XC50: 851 nM for the first, 889 nM for the second.

`CCCc1ccc(S(=O)(=O)NC2CCN(C(=O)Nc3ccc(I)cc3)CC2)cc1` and `CN1CCC(NCc2ccc(-c3ccc(S(=O)(=O)NCc4ccccc4)c(F)c3)cc2)CC1` are within 1.5-fold of each other in XC50: 872 nM for the first, 611 nM for the second.

First: COc1cc(Cl)c(C)cc1N(Cc1ccccc1-c1ccccc1)S(=O)(=O)c1ccc(C(F)(F)F)cc1
Second: CN(C)CCCOC(=O)c1cc2cc(-c3ccccc3)ccc2n1S(=O)(=O)Cc1ccccc1
The XC50 of the first is 2.9-fold higher: 1050 nM for the first, 361 nM for the second.

`COc1ccc(CN(C)CCOc2ccc(NC(=O)c3cccc4c(=O)c5cc(SC)ccc5[nH]c34)cc2)cc1OC` and `CCOc1ccc2c(=NN=Cc3ccc(OC)c(OC)c3)cc(C)[nH]c2c1` are within 1.5-fold of each other in XC50: 877 nM for the first, 700 nM for the second.

Compared with `Cc1ccc(Cn2ccc3c4c(N)nc(N)nc4ccc32)cc1`, `CNc1ccc(CNCc2ccc(-c3ccc(-c4nc5cc(C(F)(F)F)ccc5[nH]4)s3)cc2)cc1` is 55-fold higher in XC50: 3.2 nM for the first, 177 nM for the second.

Compared with `COc1ccc2c(c1)Nc1ccc(Cl)cc1C2N` (stereo not given), `Cc1ccc2c(=NN=Cc3cccc(Cl)c3)cc(C)[nH]c2c1` is 3.1-fold higher in XC50: 303 nM for the first, 949 nM for the second.

First: Oc1cc2c(cc1CN1CCN(Cc3ccc(Cl)s3)CC1)CCC2
Second: CN1CCCC(CN2CCN(Cc3ccc(-c4ccc(-c5nc6ccccc6[nH]5)cc4)cc3)CC2)C1 (stereo not given)
The XC50 of the first is 4.4-fold higher: 616 nM for the first, 141 nM for the second.

Going from `CO/C(=C\C=C\c1cc2cc(Cl)c(Cl)cc2[nH]1)C(=O)NCCN1CCCCC1` to `O=C(/C=C/c1ccc(Cl)c(Cl)c1)NCCCCCN1CCCN(C(=O)Nc2ccc(Cl)c(Cl)c2)CC1`, the XC50 falls from 1400 nM to 864 nM (1.6-fold).

`O=C(Nc1ccc(-c2nc3ccccc3[nH]2)cc1)c1ccc(S(=O)(=O)N2CCc3ccccc32)cc1` and `O=C(CCc1c[nH]cn1)Nc1ccc(-c2ccc(-c3nc4ccccc4[nH]3)cc2)cc1` are within 1.5-fold of each other in XC50: 741 nM for the first, 705 nM for the second.

`C=C(NC(=O)c1cc(C)cc(C)c1)C(=O)OC` and `COc1cc2nc(N3CCC(CNC(=O)c4ccc(-c5cccc(C#N)c5)cc4)CC3)nc(N)c2cc1OC` are within 1.5-fold of each other in XC50: 174 nM for the first, 139 nM for the second.

Compared with `CN1CCC(NCc2cccc(-c3nn(C)c4nc(NC5CCCC5)ncc34)c2)CC1`, `O=C(Nc1ccccc1)N(Cc1ccccc1-c1cccc(CNC2CCCC2)c1)C1CCN(Cc2ccccc2)CC1` is 6.1-fold lower in XC50: 1020 nM for the first, 168 nM for the second.

`CCCC(CNC(=O)c1cc2c(Cl)cc(Cl)cc2[nH]1)CNc1cc(=O)c2ccccc2[nH]1` (stereo not given) and `CCCNC(=O)C1Cc2c([nH]c3ccc(Br)cc23)C2(CCN(CCc3ccccc3)CC2)N1` (stereo not given) are within 1.5-fold of each other in XC50: 903 nM for the first, 678 nM for the second.

First: CC(=O)C1=NN(c2ccc(C)cc2)C(c2cccs2)N1c1ccccc1 (stereo not given)
Second: Cc1cccc2nc(-c3ccc(-c4ccc(NC(=O)NCc5ccccc5)cc4)s3)[nH]c12
The XC50 of the first is 2.3-fold lower: 338 nM for the first, 768 nM for the second.

`O=C(/C=C/C=C/c1ccccc1)NCCCCCN1CCC(c2c[nH]c3ccccc23)CC1` and `CC(C)(C)c1ccc(/C=C/C(=O)NCCCCCN2CCC(c3c[nH]c4ccccc34)CC2)cc1` are within 1.5-fold of each other in XC50: 1170 nM for the first, 1090 nM for the second.

Going from `Oc1cc(Nc2ccnc3cc(-c4ccc(CN5CCCCC5)o4)ccc23)c(Cl)cc1F` to `COc1cc(NC(=O)c2nn(CCCN3CCC4(CC3)C(=O)NCN4c3ccccc3)cc2-c2ccc(Cl)c(Cl)c2)cc(OC)c1OC`, the XC50 rises from 122 nM to 753 nM (6.2-fold).

Compared with `Cc1cc2ncn(-c3nccc(NCc4cccnc4)n3)c2cc1C`, `c1ccn2c(-c3ncnc(NCc4ccc5c(c4)CCO5)n3)cnc2c1` is 1.8-fold higher in XC50: 664 nM for the first, 1190 nM for the second.

`CCCCCNC(=N)N/N=C/c1c[nH]c2ccc(OC)cc12` and `COc1cccc(C(=O)NCCc2cccc(Cl)c2)c1Oc1ccccc1` are within 1.5-fold of each other in XC50: 955 nM for the first, 844 nM for the second.

First: Nc1ncc(-c2ccccc2)cc1-c1cccc2ncccc12
Second: Oc1ccc(-c2cc(-c3ccc(O)cc3)nc(-c3ccccc3)n2)cc1
The XC50 of the first is 2.9-fold lower: 272 nM for the first, 783 nM for the second.

`NCc1ccc(-c2cccc(CNC3CCN(Cc4ccccc4)CC3)c2)cc1` and `COc1ccc(-c2ccc(CNCc3ccccc3)cc2)cc1S(=O)(=O)NCCN1CCCC1` are within 1.5-fold of each other in XC50: 672 nM for the first, 726 nM for the second.

Going from `CC(O)C1CCCCN1C(=O)c1cccc(-c2ccc(-c3nc4ccccc4[nH]3)s2)c1` (stereo not given) to `COc1ccccc1CN1CCC(NC(=O)c2ccc(-c3cccc(Cl)c3)s2)CC1`, the XC50 rises from 798 nM to 1420 nM (1.8-fold).

`CCCCCCN1CCCN(Cc2ccc(C(=O)Nc3ccc(CC)cc3)cc2)CC1` and `Cc1cc(NC(=O)CCN2CCN(c3cccc(Cl)c3Cl)CC2)ccc1N1CCN(C(C)C)CC1` are within 1.5-fold of each other in XC50: 756 nM for the first, 847 nM for the second.

`CC(=O)Nc1csc(-c2cnc(/C=C(\C)C[C@@H]3OC[C@H](C[C@@H]4O[C@H]4[C@@H](C)[C@H](C)O)[C@@H](O)[C@H]3O)o2)c1` and `CCCC(C(CC1CCC(C)CC1)C(=O)NC(CCCNc1ncccn1)C(=O)Nc1nccs1)N(O)C=O` (stereo not given) are within 1.5-fold of each other in XC50: 178 nM for the first, 187 nM for the second.

Going from `O=C(NC1CCC(CN2CCC(c3c[nH]c4ccccc34)CC2)CC1)c1cnn(-c2ccccc2)c1-c1ccccc1Cl` (stereo not given) to `COc1ccc(F)cc1-c1cccc(CNC2CCN(CC3Cn4c(=O)ccc5ccc(F)c3c54)CC2)c1` (stereo not given), the XC50 rises from 182 nM to 830 nM (4.6-fold).

`CCC1(c2ccccc2)N=C(N)N(CCCc2ccccc2)C1=O` (stereo not given) and `CC(C)(C)c1nn(-c2ccccc2)c2[nH]c(=O)c(CNCc3ccc4c(c3)OCO4)cc12` are within 1.5-fold of each other in XC50: 891 nM for the first, 1050 nM for the second.

Going from `CS(=O)(=O)Nc1cccc(-c2cnc3[nH]cc(-c4cccc(CN)c4)c3c2)c1` to `NCCNc1ccc([N+](=O)[O-])cc1C(=O)Nc1cccc(C(F)(F)F)c1`, the XC50 falls from 1660 nM to 905 nM (1.8-fold).

`CN1CCN(c2ccc(CNc3ccc4ncc(-c5cccc(OC(F)(F)F)c5)n4n3)cc2)CC1` and `CN(C)c1ccc(-c2csc(C(=O)NCC3CCN(Cc4cccc(C(F)(F)F)c4)C3)c2)cc1` (stereo not given) are within 1.5-fold of each other in XC50: 862 nM for the first, 843 nM for the second.

`Cc1[nH]c2ccccc2c1C1=CCN(CCN2CCOc3c(Br)cccc3C2=O)CC1` was tested, and the XC50 was 797 nM.
